Assay results published in patent US9494573B2, “In vitro tumor in dish kit and method” (University of Kansas, priority 2012, dated 2016).

Legend:
[1] = test system: human ovarian cancer epithelial cells from ascites fluid; test: Tumor in Dish model using primary tumor cells: cancer cells; format: cell-based; settings: TiD with primary patient cells, FIG. 5
Text: Human ovarian cancer epithelial cells were isolated from the ascites fluid of a patient and combined with normal cells as described in Example 1 to form TiD.

[2] = test system: normal cells in the PLiD

Compound: N.N.[Cl][Pt][Cl] [cisplatin]
- killing of ovarian cancer cells from the ascites fluid [1]: killed most of the ovarian cancer cells
- effect on the surrounding normal cells [2]: affected the normal cells
